# Laboratory results published in publication PMC12254266, “Multicolored sequential resonance energy transfer for detection of simultaneous ligand binding at G protein-coupled receptors” (Nature Communications, 2025).
# Several values for one entry are separate records, joined by “and”; a condition that tells them apart may be missing. Equal values may be shown once. Read-outs that look alike come from different tables or passages of the source.
# How the values were obtained:
# FFA1 = FFA1 (Homo sapiens, UniProt O14842); experiment: Ca2+ mobilisation (Fura2) in Flp-In T-REx 293 cells expressing Nluc-FFA1, FFA1-Nluc or untagged FFA1; type: cell-based; design: expressed in transfected cells; settings: for pEC50: Ca2+ data, mean±SEM; for pEC50 / EMax: NR = No response; for EMax: percentage of response to 10 μM T360
# How it was run: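 520 nm emission read at 340 and 380 nm excitation over 90 s spanning compound addition. Response taken as peak 340/380 ratio after subtracting pre-addition ratios.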
# FFA1-Nluc [1] = target: T1, FFA1-Nluc (Homo sapiens, UniProt O14842); experiment: DISCo-BRET (endpoint, spectra scan, kinetics) with TUG-2591 and TUG-2597 at C terminal Nluc tagged FFA1; type: binding; design: expressed in transfected cells; settings: for Specific BRET (540/450): Sup Fig 3Bii, TUG-2591 0 nM; for Kd: TUG-2597 after TUG-2591 pre-treatment; for Specific BRET (540/450), % of control: Figure 4Bii, single replicate values (technical duplicate)
# How it was run: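 After Nano-Glo substrate (1:800 final), ligand-treated FFA1-Nluc or Nluc-FFA1 cells, doxycycline-induced (100 ng/mL), were read. Kinetic association/dissociation runs were at 25 °C; endpoint and 440–740 nm spectra came after 5 min at 37 °C. Non-specific signal came from competing ligands at high concentration.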
# FFA1-Nluc [2] = target: T1, FFA1-Nluc; experiment: Bystander BRET internalisation assay, FFA1-Nluc in HEK293T cells; type: cell-based; design: expressed in transfected cells; host or cells: HEK293T (ATCC, CRL-3216), transient; settings: in words; up to 60 min
# Procedure: Cells were transfected using a reverse transfection protocol while plating into a poly-D-lysine coated white 96-well plates. Cells were plated at 60,000 cells with 100 ng of plasmid DNA and 0.6 µg of polyethyleneimine (PEI) per well. Cells were cultured for 24 h before washing with HBSS and incubating in HBSS at 37 °C for 30 min. NanoGlo substrate was added a final 1:800 dilution and plates incubated for 10 min at 37 °C. […] After 5 min of baseline measurements, readings were paused and test compounds added to the plate.
# [3] = log[Ligand] -5, single technical replicates
# [4] = log[Ligand] -5.5, single technical replicates
# [5] = log[Ligand] -6, single technical replicates
# [6] = log[Ligand] -6.5, single technical replicates
# [7] = log[Ligand] -7, single technical replicates
# [8] = log[Ligand] -8, single technical replicates
# [9] = log[Ligand] -9, single technical replicates
# [10] = TUG-2591 100 nM + TUG-2597 […], displacing ligand T360 10 μM
# [11] = TUG-2597 […] after TUG-2591 pre-treatment (Sup. Fig. 10A)
# [12] = based on the value calculated in Supplementary Table 4
# [13] = tracers 1.0 μΜ / 3.16 μΜ, displacing ligand T360 (30 μM)
# Sequence of FFA1 (O14842 whole entry): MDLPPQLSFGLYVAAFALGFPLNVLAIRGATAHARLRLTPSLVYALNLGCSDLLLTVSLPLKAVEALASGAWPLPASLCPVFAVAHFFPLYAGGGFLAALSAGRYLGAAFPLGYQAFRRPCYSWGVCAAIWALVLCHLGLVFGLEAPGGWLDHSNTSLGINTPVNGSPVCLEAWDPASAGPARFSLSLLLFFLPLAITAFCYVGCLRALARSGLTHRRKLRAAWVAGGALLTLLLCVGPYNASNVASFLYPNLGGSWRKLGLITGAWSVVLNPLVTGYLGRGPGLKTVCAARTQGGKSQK
# T1 sequence (O14842 whole entry): as above
smiles,measurement,setting,value
COc1ccc(C(=O)N(CC(C)(C)CNc2ccc([N+](=O)[O-])c3nonc23)c2cccc(C)n2)c(N2CCC(COc3cccc(C(CC(=O)O)C4CC4)c3)CC2)c1.O=C(O)C(F)(F)F (stereo not shown) [TUG-2597],pEC50,FFA1,7.27±0.15
same,Ca2+ Response as a % of T360 Response,"FFA1; FFA1-Nluc cells, log[ligand] -6, technical replicates",99.449% and 102.959% and 94.044% and 86.097% and 89.862% and 94.557% and 93.903% and 112.372% and 96.085%
same,Ca2+ Response as a % of T360 Response,"FFA1; FFA1-Nluc cells, log[ligand] -6.5, technical replicates",93.856%
same,Ca2+ Response as a % of T360 Response,"FFA1; Nluc-FFA1 cells, log[ligand] -6, technical replicates",98.502% and 90.832% and 83.286% and 100.456% and 100.532% and 98.348% and 86.132% and 101.429% and 99.802%
same,Ca2+ Response as a % of T360 Response,"FFA1; Nluc-FFA1 cells, log[ligand] -6.5, technical replicates",75.000% and 74.673% and 79.991% and 79.440% and 88.972% and 77.424%
same,activity in Ca2+ assays,FFA1; in words,full agonist activity
same,Ca2+ Response as a % of T360 Response,FFA1; [3],94.1089% and 100.3658% and 94.0694% and 95.2773% and 93.4218% and 94.0281% and 113.6201% and 103.7535% and 91.4802%
same,Ca2+ Response as a % of T360 Response,FFA1; [4],88.4228% and 88.1164% and 92.8756% and 94.9449% and 95.8176% and 102.8518% and 111.3779% and 100.7045% and 94.6978%
same,Ca2+ Response as a % of T360 Response,FFA1; [5],102.9594% and 94.0443% and 86.0972% and 89.8623% and 94.5572% and 93.9027% and 112.3722% and 96.0847% and 99.4485%
same,Ca2+ Response as a % of T360 Response,FFA1; [6],98.0209% and 82.7239% and 91.3275% and 93.3935% and 84.3453% and 87.8268% and 93.2804% and 88.9497% and 93.8558%
same,Ca2+ Response as a % of T360 Response,FFA1; [7],78.0026% and 75.4199% and 62.2477% and 75.7232% and 79.9853% and 65.5987% and 54.9740% and 35.8972% and 43.3457%
same,Ca2+ Response as a % of T360 Response,FFA1; [8],14.2762% and 15.7577% and 11.8329% and 8.5966% and 24.0260% and 6.3496% and -0.7745% and -0.6973% and 0.6419%
same,Ca2+ Response as a % of T360 Response,FFA1; [9],2.8056% and 3.1175% and 1.8245% and 0.4833% and 3.2822% and 3.2529% and 0.4143% and 0.1324% and 3.0301%
same,EMax,FFA1,101±4%
same,Ca2+ Response as a % of T360 Response,"FFA1; untagged FFA1 cells, log[ligand] -6, technical replicates",93.834% and 82.677% and 85.015% and 110.264% and 98.194% and 98.400% and 82.235% and 72.424% and 63.906% and 83.124% and 92.268% and 73.931%
same,Specific BRET (540/450),FFA1-Nluc [1]; TUG-2597 + TUG-905,0.2651 and 0.2434 and 0.2485 and 0.2471 and 0.2191 and 0.2108
same,Specific BRET (540/450),FFA1-Nluc [1]; TUG-2597 alone,0.1932 and 0.1879 and 0.1690 and 0.1361 and 0.1137 and 0.1169
same,kOff DISCo-BRET NBD/Nluc,FFA1-Nluc [1]; [10],0.004 s⁻¹
same,kOff DISCo-BRET SulfoCy5/NBD,FFA1-Nluc [1]; [10],0.0045 s⁻¹
same,kOff DISCo-BRET NBD/Nluc,"FFA1-Nluc [1]; TUG-2591 100 nM + TUG-2597 […], displacing ligands TUG-905 and T360 10 μM each",0.00367 s⁻¹
same,kOn DISCo-BRET NBD/Nluc,FFA1-Nluc [1]; [11],31666.67 M⁻¹ s⁻¹
same,kOn DISCo-BRET SulfoCy5/NBD,FFA1-Nluc [1]; [11],28333.33 M⁻¹ s⁻¹
same,Kd,FFA1-Nluc [1]; read-out: Kd DISCo-BRET NBD/Nluc (kinetic),130 nM
same,Kd,FFA1-Nluc [1]; read-out: Kd DISCo-BRET SulfoCy5/NBD (kinetic),140 nM
same,kOff DISCo-BRET NBD/Nluc,FFA1-Nluc [1]; [12],0.004 s⁻¹
same,kOff DISCo-BRET SulfoCy5/NBD,FFA1-Nluc [1]; [12],0.004 s⁻¹
same,off rate from DISCo-BRET binding studies,FFA1-Nluc [1]; range depending on which tracer concentration was used (author rebuttal),0.18-0.27
same,kOff DISCo-BRET NBD/Nluc,FFA1-Nluc [1]; [13],0.004 s⁻¹
same,kOff DISCo-BRET SulfoCy5/NBD,FFA1-Nluc [1]; [13],0.003 s⁻¹
same,kOff DISCo-BRET NBD/Nluc,"FFA1-Nluc [1]; tracers 1.0 μΜ / 3.16 μΜ, displacing ligands TUG-905 and T360 (30 μM each)",0.00667 s⁻¹
same,internalization of FFA1-Nluc,FFA1-Nluc [2],No internalization
"COc1ccc(C(=O)N(CC(C)(C)C)c2cccc(C)n2)c(N2CCC(COc3cccc(C(CC(=O)O)C4CC4)c3)CC2)c1.O=C(O)C(F)(F)F (stereo not shown) [Cpd 6h, reference compound]",pEC50,FFA1,7.58±0.37
same,Ca2+ Response as a % of T360 Response,FFA1; [3],84.6341% and 118.5422% and 131.5391% and 131.6815%
same,Ca2+ Response as a % of T360 Response,FFA1; [4],110.3362% and 90.2944% and 104.2328% and 116.7691% and 104.8460% and 102.3011%
same,Ca2+ Response as a % of T360 Response,FFA1; [5],71.8152% and 70.2762% and 114.0711% and 118.1782% and 101.8675% and 96.5850%
same,Ca2+ Response as a % of T360 Response,FFA1; [6],60.3759% and 123.2785% and 113.4233% and 101.5371% and 93.1451%
same,Ca2+ Response as a % of T360 Response,FFA1; [7],63.1956% and 51.7459% and 118.1727% and 120.9922% and 92.4678% and 86.2833%
same,Ca2+ Response as a % of T360 Response,FFA1; [8],10.9661% and -4.3988% and 87.5826% and 74.3785% and 6.7799% and 2.9748%
same,Ca2+ Response as a % of T360 Response,FFA1; [9],-2.3895% and -2.3898% and 3.1637% and 3.9796% and -0.4916% and 4.7706%
same,EMax,FFA1,108±8%
same,pIC50 DISCo-BRET NBD/Nluc,"FFA1-Nluc [1]; 100 nM TUG-2591 and […] TUG-2597, NC = No competition",7.3±0.1
same,pIC50 DISCo-BRET SulfoCy5/NBD,"FFA1-Nluc [1]; 100 nM TUG-2591 and […] TUG-2597, one site model, NC = No competition",7.4±0.1
same,"Specific BRET (540/450), % of control",FFA1-Nluc [1]; log[Ligand] -5,29.23 % of control and -1.54 % of control and -0.53 % of control and 0.53 % of control and 0.62 % of control and 6.18 % of control and -2.77 % of control and 4.56 % of control and -7.63 % of control and 10.97 % of control
same,"Specific BRET (540/450), % of control",FFA1-Nluc [1]; log[Ligand] -5.5,46.57 % of control and -7.13 % of control and 13.78 % of control and 13.63 % of control and 17.56 % of control and 19.08 % of control and -1.79 % of control and 0.81 % of control and 1.43 % of control and -21.22 % of control
same,"Specific BRET (540/450), % of control",FFA1-Nluc [1]; log[Ligand] -6,59.72 % of control and 23.08 % of control and 13.18 % of control and 6.55 % of control and 14.37 % of control and 13.95 % of control and 102.77 % of control and 7.65 % of control and 12.16 % of control and 25.98 % of control
same,"Specific BRET (540/450), % of control",FFA1-Nluc [1]; log[Ligand] -6.5,46.01 % of control and 12.17 % of control and 20.56 % of control and 31.70 % of control and 26.58 % of control and 36.43 % of control and 14.98 % of control and 12.87 % of control and 22.17 % of control and 15.73 % of control
same,"Specific BRET (540/450), % of control",FFA1-Nluc [1]; log[Ligand] -7,46.01 % of control and 48.53 % of control and 38.93 % of control and 54.59 % of control and 43.79 % of control and 54.75 % of control and 36.48 % of control and 23.45 % of control and 26.46 % of control and 27.41 % of control
same,"Specific BRET (540/450), % of control",FFA1-Nluc [1]; log[Ligand] -8,134.69 % of control and 121.26 % of control and 83.36 % of control and 78.84 % of control and 78.63 % of control and 91.67 % of control and 70.36 % of control and 75.90 % of control and 108.22 % of control and 143.98 % of control
same,"Specific BRET (540/450), % of control",FFA1-Nluc [1]; log[Ligand] -9,144.76 % of control and 148.39 % of control and 88.63 % of control and 100.08 % of control and 88.76 % of control and 93.89 % of control and 95.60 % of control and 108.79 % of control and 114.18 % of control and 110.13 % of control
same,"'bottom' of the IC50 curve, DISCo-BRET NBD/Nluc",FFA1-Nluc [1]; percentage of binding obtained in the absence of competing ligand,9.3%
same,"'bottom' of the IC50 curve, DISCo-BRET SulfoCy5/NBD","FFA1-Nluc [1]; percentage of binding obtained in the absence of competing ligand, 100 nM TUG-2591 and […] TUG-2597",16%
same,pKi DISCo-BRET NBD/Nluc,FFA1-Nluc [1]; using Kd TUG-2597 380 nM,7.5±0.1
